Reference: patent US9931372B2, “Synthetic apelin fatty acid conjugates with improved half-life” (Novartis AG, priority 2015, dated 2018)
Read-outs that look alike come from different tables or passages of the source. Bridge positions count the residues as written; N and C are the ends. Square brackets hold non-standard residues; d marks the D form. Peptide text beside a SMILES is read from it. * marks the point of attachment. PEG24 = NCCOCCOCCOCCOCCOCCOCCOCCOCCOCCOCCOCCOCCOCCOCCOCCOCCOCCOCCOCCOCCOCCOCCOCCOCCC(=O)O; Malonyl(C11H23,(CH2)10COOH) = CCCCCCCCCCCC(CCCCCCCCCCC(=O)O)(C(=O)O)C(=O)*; PEG12 = NCCOCCOCCOCCOCCOCCOCCOCCOCCOCCOCCOCCOCCC(=O)O; pGlu = O=C1CC[C@@H](C(=O)O)N1; PEG4 = NCCOCCOCCOCCOCCC(=O)O; Nle = CCCC[C@H](N)C(=O)O

Columns and labels:
hAPJ = biological target: T1, hAPJ (Homo sapiens, UniProt P35414); experiment: hAPJ Calcium flux assay; format: cell-based
T1 sequence (P35414 1-380): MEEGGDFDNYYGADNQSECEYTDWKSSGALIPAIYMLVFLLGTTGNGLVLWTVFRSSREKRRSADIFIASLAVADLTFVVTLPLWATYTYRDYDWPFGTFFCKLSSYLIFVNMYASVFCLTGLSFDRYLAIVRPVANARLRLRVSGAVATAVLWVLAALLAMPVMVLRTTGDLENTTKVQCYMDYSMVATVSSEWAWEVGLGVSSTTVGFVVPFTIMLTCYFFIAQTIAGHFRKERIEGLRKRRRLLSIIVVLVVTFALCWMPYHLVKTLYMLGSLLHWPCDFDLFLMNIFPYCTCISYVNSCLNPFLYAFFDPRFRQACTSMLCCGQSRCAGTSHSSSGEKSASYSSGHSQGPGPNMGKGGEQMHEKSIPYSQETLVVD
Experimental: Chem-5 APJ stable cells (Millipore # HTS068C) were plated in 384-well format with 10,000 cells/well in 25 ul growth media, then grown 24 hours in a 37° C. tissue culture incubator. One hour before the assay, 25 ul/well FLIPR Calcium 4 dye (Molecular Devices R8142) with 2.5 mM probenecid was added, and cells were incubated one hour in a 37° C. tissue culture incubator. Bioconjugates were solubilized in HBSS, HEPES & 0.1% BSA buffer, and serially-diluted 10-fold, from 50 uM to 5 pM, in triplicate. FLIPR Tetra was used to add bioconjugates to the cells with dye (1:5, for final bioconjugate concentrations ranging from 10 uM to 1 pM). FLIPR dye inside the cells emitted fluorescence after binding to calcium, while fluorescence from outside the cells was masked. Fluorescence was measured using 470-495 excitation and 515-575 emission wavelengths on the FLIPR Tetra. Readings were done for 3 minutes total, beginning 10 seconds before the bioconjugate addition. Maximum-minimum values were calculated and plotted for each bioconjugate concentration, and GraphPad prism software was used to calculate EC50 values at the curve inflection points, for calcium flux stimulation by bioconjugates.

[1] = Surrogate activity-based plasma stability assay; format: in vitro ADME; details: rat
Excerpt: Surrogate Activity-Based Plasma Stability Assay:
2) Calculate slope of value above and […]

[2] = In vivo pharmacokinetic assessment via SC dosing; details: mouse, C57/B6 mice, subcutaneous dosing, plasma, read-out: t½ (converted)
Experimental: Protocols and Data for the In Vivo Pharmacokinetic Assessment Via SC Dosing. Formulation, Dosing and Sample Acquisition: […]
Example 1 and example 4 were dissolved to 0.1 mg/ml concentration in 30% (w/v) PEG300 and 5% (w/v) dextrose in PBS. C57/B6 mice (˜20 weeks of age) were dosed with dissolved compound by subcutaneous (SC) injection into the flank (n=4 per compound). Injection volume was 10 ml/kg. Blood samples were withdrawn from the saphenous vein at 3 and 6 hours post-dose, as well as at 1, 2, 4, 7 and 10 days post dose. Blood samples were immediately centrifuged at 4000×g for 10 min. Plasma supernatant (10 μL) was transferred to a 96-well plate and frozen at −80 C until analysis.
C57/B6J mice (˜22 weeks of age) were dosed with dissolved compound by SC injection (n=4). Blood samples were withdrawn from the tail vein at 15, 30, 60 and 120 minutes post injection. These were immediately centrifuged and then plasma supernatant was transferred to a 96-well plate and frozen at −80 C until analysis.
Preparation of Samples for Bioanalysis:
A pre-weighed sample of each compound (1-3 mg) was obtained and dissolved to 1 mg/ml in DMSO. These were diluted serially in mouse plasma (BioReclamation) to final concentrations of 10,000, 5,000, 1,000, 500, 100, 50, 10, 5, and 1 ng/ml to make standard curve for analysis.
Plasma samples from PK studies were thawed and diluted to 25 μL total volume by addition of mouse plasma.
25 μL aliquots of each sample and standard curve sample were arranged on a 96-well plate.
150 μL acetonitrile containing 100 ng/ml glyburide as internal standard was added to each sample and the samples vortexed for 30 seconds. Samples were then centrifuged at 4000×g for 10 minutes. 125 μL supernatant was then transferred to a fresh 96-well plate. 50 μL of water was added and mixed by vortexing for 30 seconds.
LC/MS Bioanalysis (Agilent 1290):
Samples (10 μL) were transferred to an HPLC using a CTC PAL autosampler. The LC column was ACE C18 30×2.1 mm, 3.0 μm bead. […]

[3] = Chem-5 APJ stable cells, FLIPR calcium flux, read-out: hAPJ Ca^2+ Flux EC50

Row | Compound | EC50 (hAPJ) | half-life [1] | half-life [2] | EC50 (hAPJ; [3]) | half-life ([2]; 1 mg/kg)
1 | CCCC[C@@H]1NC(=O)[C@@H]2CCCN2C(=O)CNC(=O)[C@H](CCCCN)NC(=O)[C@H](Cc2cnc[nH]2)NC(=O)[C@@H](NC(=O)[C@H](CC(C)C)NC(=O)[C@H](CCCNC(=N)N)NC(=O)[C@@H]2CCCN2C(=O)[C@H](CCCNC(=N)N)NC(=O)[C@@H]2CCC(=O)N2)CSSC[C@@H](C(=O)N[C@@H](Cc2ccccc2)C(=O)O)NC1=O [pE-R-P-R-L-C*-H-K-G-P-Nle-C*-F-OH, reference compound] ([pGlu]RPRLCHKGP[Nle]CF-OH; disulfide 6-12) | 0.001 µM | 2.2 h | 0.52 h |  | 
2 | CCCCCCCCCCCC(CCCCCCCCCCC(=O)O)(C(=O)O)C(=O)NCCOCCOCCOCCOCCOCCOCCOCCOCCOCCOCCOCCOCCC(=O)N[C@@H](CCC(N)=O)C(=O)N[C@@H](CCCNC(=N)N)C(=O)N1CCC[C@H]1C(=O)N[C@@H](CCCNC(=N)N)C(=O)N[C@@H](CC(C)C)C(=O)N[C@H]1CSSC[C@@H](C(=O)N[C@@H](Cc2ccccc2)C(=O)O)NC(=O)[C@H](CCCC)NC(=O)[C@@H]2CCCN2C(=O)CNC(=O)[C@H](CCCCN)NC(=O)[C@H](Cc2cnc[nH]2)NC1=O (some centres unmarked) [Example 2] ({Malonyl(C11H23,(CH2)10COOH)-PEG12}-QRPRLCHKGP[Nle]CF-OH; disulfide 6-12) |  | > 16.7 h |  | 0.0848 µM | 
3 | CCCCCCCCCCCC(CCCCCCCCCCC(=O)O)(C(=O)O)C(=O)NCCOCCOCCOCCOCCOCCOCCOCCOCCOCCOCCOCCOCCOCCOCCOCCOCCOCCOCCOCCOCCOCCOCCOCCOCCC(=O)N[C@@H](CCC(N)=O)C(=O)N[C@@H](CCCNC(=N)N)C(=O)N1CCC[C@H]1C(=O)N[C@@H](CCCNC(=N)N)C(=O)N[C@@H](CC(C)C)C(=O)N[C@H]1CSSC[C@@H](C(=O)N[C@@H](Cc2ccccc2)C(=O)O)NC(=O)[C@H](CCCC)NC(=O)[C@@H]2CCCN2C(=O)CNC(=O)[C@H](CCCCN)NC(=O)[C@H](Cc2cnc[nH]2)NC1=O (stereo partly drawn) [Example 1, Fatty Acid-Linker#1Q-R-P-R-L-C*-H-K-G-P-(Nle)-C*-F (C6-C12 Disulfide Bridge)] ({Malonyl(C11H23,(CH2)10COOH)-PEG24}-QRPRLCHKGP[Nle]CF-OH; disulfide 6-12) |  | > 16.7 h |  | 0.111 µM | 43 h
4 | CCCCCCCCCCCC(CCCCCCCCCCC(=O)O)(C(=O)O)C(=O)NCCOCCOCCOCCOCCC(=O)N[C@@H](CCC(N)=O)C(=O)N[C@@H](CCCNC(=N)N)C(=O)N1CCC[C@H]1C(=O)N[C@@H](CCCNC(=N)N)C(=O)N[C@@H](CC(C)C)C(=O)N[C@H]1CSSC[C@@H](C(=O)N[C@@H](Cc2ccccc2)C(=O)O)NC(=O)[C@H](CCCC)NC(=O)[C@@H]2CCCN2C(=O)CNC(=O)[C@H](CCCCN)NC(=O)[C@H](Cc2cnc[nH]2)NC1=O (some centres unmarked) [Example 4] ({Malonyl(C11H23,(CH2)10COOH)-PEG4}-QRPRLCHKGP[Nle]CF-OH; disulfide 6-12) |  | > 16.7 h |  | 0.158 µM | 23 h
